Publication PMC7848910, “Multimodularity of a GH10 Xylanase Found in the Termite Gut Metagenome” (Applied and Environmental Microbiology, 2021)

Legend:
Assay in all cases: microscale thermophoresis, initial fluorescence analysis, RED-NHS labelled protein
Assay type in all cases: binding
Details in all cases: 50 mM phosphate pH 7, 0.05% Pluronic F-127
[1] = target: T1, Pm25ΔCBMs (M6; M7 = Pm25ΔCBMs E546A) (termite gut metagenome, UniProt S0DFK9, E546A, form not given)
T1 construct: gene Pm25; Pm25 without its two inserted CBM4s (catalytic domain 66-151 and 514-753); synthetic gene, E. coli Tuner(DE3), TALON-purified

CBM4-1 (M8) = target: T2, CBM4-1 (M8) (termite gut metagenome, UniProt S0DFK9)
T2 construct: gene Pm25; isolated CBM4-1 domain, L167-L320 by primer name (domain 161-321), pET28a(+), E. coli Tuner(DE3), TALON-purified

CBM4-2 (M9) = target: T3, CBM4-2 (M9) (termite gut metagenome, UniProt S0DFK9)
T3 construct: gene Pm25; isolated CBM4-2 domain, D332-D484 by primer name (domain 324-486), pET28a(+), E. coli Tuner(DE3), TALON-purified
T3 sequence (S0DFK9 332-484 limits assumed): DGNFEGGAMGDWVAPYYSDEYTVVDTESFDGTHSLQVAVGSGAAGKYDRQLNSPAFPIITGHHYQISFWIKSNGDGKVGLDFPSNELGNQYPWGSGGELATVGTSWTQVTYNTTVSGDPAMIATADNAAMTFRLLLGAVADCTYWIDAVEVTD

T1 sequence (S0DFK9 30-160 limits assumed, stated change not applied): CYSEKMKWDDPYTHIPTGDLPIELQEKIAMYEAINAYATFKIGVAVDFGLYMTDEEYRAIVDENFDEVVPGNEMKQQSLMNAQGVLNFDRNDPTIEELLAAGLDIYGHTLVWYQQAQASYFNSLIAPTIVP
T1 sequence (S0DFK9 487-776 E546A limits assumed): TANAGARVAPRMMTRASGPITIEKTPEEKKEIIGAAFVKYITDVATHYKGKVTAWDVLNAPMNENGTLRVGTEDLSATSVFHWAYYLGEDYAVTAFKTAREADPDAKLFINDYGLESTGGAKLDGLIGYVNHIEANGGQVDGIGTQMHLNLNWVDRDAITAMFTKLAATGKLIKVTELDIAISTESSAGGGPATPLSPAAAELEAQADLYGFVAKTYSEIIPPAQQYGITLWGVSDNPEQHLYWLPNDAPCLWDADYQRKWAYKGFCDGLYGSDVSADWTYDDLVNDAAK
T2 sequence (S0DFK9 167-320 limits assumed): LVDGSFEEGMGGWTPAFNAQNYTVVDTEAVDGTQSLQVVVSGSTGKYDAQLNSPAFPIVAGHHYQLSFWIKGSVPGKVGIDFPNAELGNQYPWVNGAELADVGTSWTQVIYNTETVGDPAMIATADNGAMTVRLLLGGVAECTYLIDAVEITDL

In the case of `OC1OC[C@@H](O[C@@H]2OC[C@@H](O[C@@H]3OC[C@@H](O[C@@H]4OC[C@@H](O[C@@H]5OC[C@@H](O[C@@H]6OC[C@@H](O)[C@H](O)[C@H]6O)[C@H](O)[C@H]5O)[C@H](O)[C@H]4O)[C@H](O)[C@H]3O)[C@H](O)[C@H]2O)[C@H](O)[C@H]1O` (stereo partly drawn) [X6, xylohexaose], the Kd [1] is reported as 1500 ± 200 µM, the Kd (CBM4-1 (M8)) is reported as 4700 ± 400 µM and the Kd (CBM4-2 (M9)) is reported as 1800 ± 100 µM.
